Measurements taken from patent US6348454B1, “Syntheses of new isodethiaazacephems and isodethiaazacephams, and use as potent antibacterial agents” (National Science Council, priority 1999, dated 2002).
≈ marks a conversion by molar mass, not a printed value. Where two headings read alike, the source gives them in different places.

Key:
E. coli ATCC 39188 = assay: Antibacterial activity, serial broth dilution method (MIC); assay type: cell-based; conditions: for MIC: Escherichia coli, read-out: Minimal Inhibitory Concentrations
Method: (§1) Antimicrob. Agents Chemother. 1978, 14, 807-811] penicillin G [Morris, J. J.; Page, M. I. Intra- and Intermolecular Catalysis in the Aminolysis of Benzylpenicillin. J. Chem. Soc., Perkin Trans 2 1980, 212-219], and 7-(β-phenylacetamido)-3′-desacetoxycephalosporanic acid (±)−2 [Page, M. L.; Proctor, P. Mechanism of β-Lactam Opening in Cephalosporins. J. Am. Chem. Soc. 1984, 106, 3820-3825] in vitro against five pathogenic microorganisms. The doses used were as high as 128 μg/mL.
(§2) The serial broth dilution method was used to study the antibiotic activity [Pursiano, T. A.; Misiek, M.; Leitner, F.; Price, K. E. Effect of Assay Medium on the Antibacterial Activity of Certain Penicillins and Cephalosporins. Antimicrob. Agents Chemother. 1973, 3, 33-39]. The inocula were prepared by use of the heart infusion broth (Difco Laboratories) to make 10^−4 dilutions of the overnight cultures. Tubes of the seeded antibiotic-containing media were incubated at 37° C. for 20 h. The lowest concentration of antibiotic that prevented visible growth of microorganisms was then determined.

S. aureus FDA 209P = assay: as above; assay type: cell-based; conditions: 20 h; for MIC: Staphylococcus aureus, FDA209P, read-out: Minimal Inhibitory Concentrations
Method: as §1, §2

S. typhi O-901 = assay: as above; assay type: cell-based; conditions: 20 h; for Minimal Inhibitory Concentrations: S. typhi O-901, average of triplicate determinations, 37° C.; for MIC: Salmonella enterica, TYPHI, read-out: Minimal Inhibitory Concentrations
Method: as §1, §2

[1] = system: five pathogenic microorganisms; assay: Antibacterial activity in vitro, summary in words; assay type: cell-based; conditions: doses as high as 128 μg/mL; Table 1
Method: as §1, §2

K. pneumoniae NCTC 418 = assay: Antibacterial activity, serial broth dilution method (MIC); assay type: cell-based; conditions: for MIC: Klebsiella pneumoniae, read-out: Minimal Inhibitory Concentrations
Method: as §1, §2

Ps. aeruginosa 1101-75 = assay: as above; assay type: cell-based; conditions: for MIC: read-out: Minimal Inhibitory Concentrations
Method: as §1, §2

[2] = Stability of β-lactams in water at various pH; conditions: for time within which β-lactam ring was destructed / time the β-lactam ring survived: pH 1.0; for time within which pH of the aqueous solution changed to ˜1 (destruction of β-lactam ring): initial pH about 4.0
Method: In another series of assays, we dissolved isodethiaazacephems (±)−3 and (±)−4 as well as isodethiaazacepham (±)−5 in distilled water (5.0 mg/mL).

[3] = E. coli ATCC 39188, average of triplicate determinations, 37° C., 20 h
[4] = S. aureus FDA 209P, average of triplicate determinations, 37° C.
[5] = Pseudomonas aeruginosa, 110175, 20 h
[6] = NCTC418, K. pneumoniae NCTC 418, average of triplicate determinations, 37° C., 20 h
[7] = Pseudomonas aeruginosa, 110175, Ps. aeruginosa 1101-75, average of triplicate determinations, 37° C., 20 h
[8] = ATCC39188, E. coli ATCC 39188, average of triplicate determinations, 37° C., 20 h
[9] = K. pneumoniae NCTC 418, average of triplicate determinations, 37° C., 20 h
[10] = Ps. aeruginosa 1101-75, average of triplicate determinations, 37° C., 20 h

Compound | Minimal Inhibitory Concentrations (E. coli ATCC 39188; [3]) | Minimal Inhibitory Concentrations (S. aureus FDA 209P; [4]) | Minimal Inhibitory Concentrations (S. typhi O-901) | antibacterial activity (in words) [1] | MIC (K. pneumoniae NCTC 418; NCTC418, 20 h) | MIC (Ps. aeruginosa 1101-75; [5]) | MIC (S. typhi O-901) | MIC (K. pneumoniae NCTC 418; [6]) | MIC (Ps. aeruginosa 1101-75; [7]) | MIC (E. coli ATCC 39188; [8]) | MIC (S. aureus FDA 209P; [4]) | melting point | initial pH value of the aqueous solution ([2]; distilled water, 5.0 mg/mL) | also measured
CC1(C)S[C@@H]2[C@H](NC(=O)Cc3ccccc3)C(=O)N2[C@H]1C(=O)O [penicillin G, reference compound] | 2.30 µg/mL | 0.40 µg/mL | >128 µg/mL |  |  |  |  |  |  |  |  |  |  | 
O=C(Cc1ccccc1)N[C@@H]1C(=O)N2C(C(=O)OCc3ccccc3)=C(OS(=O)(=O)C(F)(F)F)NC[C@H]12 (racemic) [(±)-12, Benzyl (6RS,7SR)-3-Trifluoromethanesulfonyloxy-8-oxo-7-(phenylacetamido)-1,4-diazabicyclo[4.2.0]oct-2-ene-2-carboxylate] |  |  |  | do not exhibit antibacterial activity | > 128 µg/mL | > 128 µg/mL | > 128 µg/mL |  |  |  |  |  |  | MIC (E. coli ATCC 39188; ATCC39188, 20 h): > 128 µg/mL; MIC (S. aureus FDA 209P): > 128 µg/mL
CO/N=C(\C(=O)N[C@@H]1C(=O)N2C(C(=O)O)=C(COC(C)=O)CS[C@H]12)c1csc(N)n1 [cefotaxime, reference compound] |  |  |  |  |  |  | 20.3 µg/mL (≈ 44.6 µM) | 10.2 µg/mL (≈ 22.5 µM) | 62.4 µg/mL (≈ 137 µM) | 0.25 µg/mL (≈ 0.549 µM) | 0.08 µg/mL (≈ 0.176 µM) |  |  | 
CS(=O)(=O)OC1=C(C(=O)OCc2ccccc2)N2C(=O)[C@@H](NC(=O)Cc3ccccc3)[C@H]2CN1 (racemic) [(±)-11, Benzyl (6RS,7SR)-3-Methanesulfonyloxy-8-oxo-7-(phenylacetamido)-1,4-diazabicyclo[4.2.0]oct-2-ene-2-carboxylate] |  |  |  | do not exhibit antibacterial activity | > 128 µg/mL | > 128 µg/mL | > 128 µg/mL |  |  |  |  |  |  | MIC (E. coli ATCC 39188; ATCC39188, 20 h): > 128 µg/mL; MIC (S. aureus FDA 209P): > 128 µg/mL
CS(=O)(=O)C1=C(O)NC[C@@H]2[C@H](NC(=O)Cc3ccccc3)C(=O)N12 (racemic) [(±)-17, (6RS,7SR)-3-Hydroxy-8-oxo-7-(phenylacetamido)-1,4-diazabicyclo[4.2.0]oct-2-ene-2-methylsulfone] |  |  | >128 µg/mL |  |  |  |  |  |  |  |  |  |  | time within which β-lactam ring was destructed [2]: two
O=C(Cc1ccccc1)N[C@@H]1C(=O)N2C(C(=O)O)=C(O)NC[C@H]12 (racemic) [(±)-10, (6RS,7SR)-3-Hydroxy-8-oxo-7-(phenylacetamido)-1,4-diazabicyclo[4.2.0]-oct-2-ene-2-carboxylic Acid] |  |  |  |  | > 128 µg/mL | > 128 µg/mL | > 128 µg/mL |  |  | 94.7 µg/mL (≈ 298 µM) | 29.5 µg/mL (≈ 93 µM) | 140 to 142 °C |  | solubility (physchem; pH 6.8, aqueous buffer): 35 mg/mL (≈ 110000 µM); time stable in phosphate buffer ([2]; phosphate buffer (0.10 M, pH 6.8)): two
CS(=O)(=O)OC1=C(C(=O)O)N2C(=O)[C@@H](NC(=O)Cc3ccccc3)[C@H]2CN1 (racemic) [(±)-3, (6RS,7SR)-3-Methanesulfonyloxy-8-oxo-7-(phenylacetamido)-1,4-diazabicyclo[4.2.0]oct-2-ene-2-carboxylic Acid] |  |  |  | promising antimicrobial activities |  |  | 1.2 µg/mL (≈ 3.03 µM) | 0.68 µg/mL (≈ 1.72 µM) | 4.38 µg/mL (≈ 11.1 µM) | 0.95 µg/mL (≈ 2.4 µM) | 0.07 µg/mL (≈ 0.177 µM) | 115 to 117 °C | about 4.0 | solubility (physchem; water): 21 mg/mL (≈ 53100 µM); time within which pH of the aqueous solution changed to ˜1 (destruction of β-lactam ring) ([2]; distilled water, 5.0 mg/mL): three; time the β-lactam ring survived [2]: ~4 h
(2RS,6RS,7SR)- and (2SR,6RS,7SR)-2-Methanesulfonyl-3,8-dioxo-7-(phenylacetamido)-1,4-diazabicyclo[4.2.0]octane-2-carboxylic Acid [(±)-5] | 97.17 µg/mL | 48.50 µg/mL | 65.30 µg/mL | profound antibacterial activity |  |  |  |  |  |  |  |  | about 2.0 | Minimal Inhibitory Concentrations (K. pneumoniae NCTC 418; [9]): 51.02 µg/mL; Minimal Inhibitory Concentrations (Ps. aeruginosa 1101-75; [10]): 120.0 µg/mL; time within which β-lactam ring was destructed ([2]; acidic solution): ≤ 3 h; time of decarboxylation ([2]; basic solution, pH 12): ≤ 20 min; time within which pH of aqueous solution changed from 2.0 to 6.0 (decarboxylation to (±)−17) ([2]; distilled water, 5.0 mg/mL): 5-6 days
O=C(Cc1ccccc1)N[C@@H]1C(=O)N2C(C(=O)O)=C(OS(=O)(=O)C(F)(F)F)NC[C@H]12 (racemic) [(±)-4, (6RS,7SR)-3-Trifluoromethanesulfonyloxy-8-oxo-7-(phenylacetamido)-1,4-diazabicyclo[4.2.0]oct-2-ene-2-carboxylic Acid] |  |  |  | promising antimicrobial activities |  |  | 0.68 µg/mL (≈ 1.51 µM) | 0.24 µg/mL (≈ 0.534 µM) | 1.15 µg/mL (≈ 2.56 µM) | 0.09 µg/mL (≈ 0.2 µM) | 0.01 µg/mL (≈ 0.0223 µM) | 100 to 102 °C | about 4.0 | solubility (physchem; water): 27 mg/mL (≈ 60100 µM); time within which pH of the aqueous solution changed to ˜1 (destruction of β-lactam ring) ([2]; distilled water, 5.0 mg/mL): two; time the β-lactam ring survived [2]: ~2 h
CC1=C(C(=O)O)N2C(=O)C(NC(=O)Cc3ccccc3)C2SC1 (single isomer, unassigned; (+)) [(+)-2, 7-(β-phenylacetamido)-3′-desacetoxycephalosporanic acid, reference compound] | 13.13 µg/mL | 0.64 µg/mL | 24.50 µg/mL |  |  |  |  |  |  |  |  |  |  | Minimal Inhibitory Concentrations (K. pneumoniae NCTC 418; [9]): 2.98 µg/mL; Minimal Inhibitory Concentrations (Ps. aeruginosa 1101-75; [10]): 100.0 µg/mL
